Assay results from ChEMBL document CHEMBL1201862, “PubChem BioAssay data set” (2004).
Active and inactive are the calls of the source. Cut-off read from the data, not from the text of the source, for most assays here: actives have a measured EC50 and inactives only a lower limit.

What was measured:
[1] = NIH-3T3 fibroblast cytotoxicity, dose response, cytotoxicity control, cell-based, fluorescence, Alamar Blue, secondary assay (AID 2327); assay type: functional;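 note: NIH-3T3 mouse fibroblasts cultured with fluconazole at 8 µg/mL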
[2] = fluconazole-exposed Candida albicans growth modulators – fluorescence, retest, confirmation (AID 2467); assay type: functional, cell-based
[3] = molecular target: T1, Serine/threonine-protein phosphatase (Candida dubliniensis (strain CD36 / CBS 7987 / NCPF 3949 / NRRLY-17841) (Yeast), UniProt B9W6M3); assay: blockers of CaCl2-induced CDRE-lacZ signaling – S. cerevisiae, luminescence, secondary, dose response (AID 2388); assay type: functional, cell-based;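 note: yeast reporter cells carrying a calcineurin-responsive lacZ construct stimulated with calcium chloride; luminescent beta-galactosidase reporter signal in whole cells rather than isolated phosphatase activity; potency for inhibition where a drop in reporter signal means calcineurin blockade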
T1 sequence (B9W6M3 whole entry): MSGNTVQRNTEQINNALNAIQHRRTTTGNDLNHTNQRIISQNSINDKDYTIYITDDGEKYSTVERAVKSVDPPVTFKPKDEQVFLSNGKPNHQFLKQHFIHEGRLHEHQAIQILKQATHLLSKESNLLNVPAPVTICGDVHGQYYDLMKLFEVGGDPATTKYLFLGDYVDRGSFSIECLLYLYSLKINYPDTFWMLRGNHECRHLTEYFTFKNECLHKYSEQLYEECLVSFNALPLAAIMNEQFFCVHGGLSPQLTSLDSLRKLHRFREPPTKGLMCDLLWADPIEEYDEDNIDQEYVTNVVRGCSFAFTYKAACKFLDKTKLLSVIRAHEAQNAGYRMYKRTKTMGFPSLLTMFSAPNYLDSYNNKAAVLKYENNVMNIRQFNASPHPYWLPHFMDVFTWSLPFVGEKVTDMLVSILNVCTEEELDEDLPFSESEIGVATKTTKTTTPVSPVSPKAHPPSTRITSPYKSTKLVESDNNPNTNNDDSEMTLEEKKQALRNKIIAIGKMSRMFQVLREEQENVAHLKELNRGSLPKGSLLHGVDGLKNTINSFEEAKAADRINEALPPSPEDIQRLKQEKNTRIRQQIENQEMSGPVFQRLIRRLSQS

[4] = tested on: HeLa; assay: ATP-based viability loss in HeLa cells – cell-based, CellTiter-Glo luminescence, cherry-pick samples, cytotoxicity control for MITF activator project, dose response (AID 540259); assay type: functional; settings: Homo sapiens
[5] = molecular target: ATP-dependent molecular chaperone HSP82 (Candida albicans (strain WO-1) (Yeast), UniProt C4YTQ8); assay: steroid-induced GRE reporter decrease in yeast – S. cerevisiae, luminescence, Hsp90 inhibitor project, dose response (AID 2400); assay type: functional, cell-based;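 note: beta-galactosidase luminescence from glucocorticoid response element reporter as proxy for Hsp90 function; inhibitor potency where signal loss means Hsp90 inhibition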
[6] = luciferase reporter signal suppression in cells – H4 neuroglioma cells, luminescence, dose response (AID 1990); assay type: functional, cell-based
[7] = tested on: BJ; assay: BJ-TERT fibroblast viability loss – cell-based, RAS-independent, luminescence, dose response (AID 1933); assay type: functional; settings: Homo sapiens
[8] = Luminescence Cell-Based Dose Response HTS to Identify Inhibitors of 5'UTR Stem-Loop Driven Prion Protein mRNA Translation in H4 Neuroglioblastoma Cells. [Related pubchem assays: 1827 (Project Summary), 1813 (Primary HTS)]; assay type: functional
[9] = alpha-synuclein stem-loop luciferase translation blockers – H4 neuroglioma cells, luminescence, confirmation (AID 1988); assay type: functional, cell-based
[10] = tested on: BJ; assay: cells; assay type: functional, cell-based; settings: Homo sapiens
[11] = tested on: BJ; assay: BJ-TERT-LT-ST fibroblast viability loss – cell-based, RAS-independent, luminescence, dose response (AID 1935); assay type: functional; settings: Homo sapiens;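 note: BJ fibroblasts immortalized with TERT plus LT and ST oncogenes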
[12] = DRD fibroblast viability loss – cell-based, non-viral oncogenic, luminescence, dose response (AID 1934); assay type: functional; settings: Homo sapiens
[13] = molecular target: T2, Heat shock factor protein 1 (Mus musculus, UniProt P38532); assay: enhancement of HSF1-driven luciferase signal – cell-based, NIH3T3, luminescence, dose retest, confirmation (AID 435004); assay type: functional;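 note: stress induced by proteasome inhibitor MG132 added 30 min after compound; luciferase reporter driven by HSF1 response element in NIH3T3 cells; actives raise luminescence as potentiators of the MG132 stress response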
T2 sequence (P38532 whole entry): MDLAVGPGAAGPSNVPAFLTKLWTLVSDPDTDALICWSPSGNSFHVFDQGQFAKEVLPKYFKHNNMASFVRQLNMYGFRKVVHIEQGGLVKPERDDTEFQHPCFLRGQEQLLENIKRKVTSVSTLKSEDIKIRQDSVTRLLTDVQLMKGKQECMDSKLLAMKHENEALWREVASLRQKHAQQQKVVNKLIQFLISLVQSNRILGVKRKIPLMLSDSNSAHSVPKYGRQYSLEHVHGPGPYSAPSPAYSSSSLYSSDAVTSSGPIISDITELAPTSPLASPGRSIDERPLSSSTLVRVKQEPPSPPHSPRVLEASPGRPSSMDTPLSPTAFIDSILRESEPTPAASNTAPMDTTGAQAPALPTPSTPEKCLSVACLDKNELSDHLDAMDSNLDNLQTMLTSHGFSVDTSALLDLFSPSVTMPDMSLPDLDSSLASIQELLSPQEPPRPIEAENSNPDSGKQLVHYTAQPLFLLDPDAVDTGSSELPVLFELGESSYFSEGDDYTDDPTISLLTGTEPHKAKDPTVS

[14] = tested on: BJ; assay: growth inhibition of engineered Ras-driven BJ cells – cell-based, alamar blue fluorescence, cherrypicked samples, dose response (AID 2631); assay type: functional; settings: Homo sapiens;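 note: confirmatory dose-response assay in RAS-dependent BJ fibroblasts engineered with TERT, LT and ST, with cytotoxicity read by fluorescence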
[15] = Luminescence Cell-Based Dose Retest to Confirm Inhibitors of Cancer Stem Cells. [Related pubchem assays (depositor defined):AID2717, AID2721]; assay type: functional, Homo sapiens; settings: Homo sapiens
[16] = tested on: H9c2; assay: cells; assay type: functional, cell-based; settings: Rattus norvegicus, H9c2, Myocardium;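 note: confirmatory concentration-response retest of ultra-high-throughput screening hits for modulation of myocardial damage; cell death induced by hydrogen peroxide oxidative stress; compound pretreatment for 60 min then peroxide exposure for 2 h; potency is for protecting the cells against peroxide damage rather than for killing them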
[17] = molecular target: T3, Endoribonuclease toxin MazF (Escherichia coli K-12, UniProt P0AE70); assay: activation of MazEF endoribonuclease cleavage – biochemical, fluorescence, single-stranded RNA substrate, uHTS hits, dose response (AID 588481); assay type: functional
T3 sequence (P0AE70 whole entry): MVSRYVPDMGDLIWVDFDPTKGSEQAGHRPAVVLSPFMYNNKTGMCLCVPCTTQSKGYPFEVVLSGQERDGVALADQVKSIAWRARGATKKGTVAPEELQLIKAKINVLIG

[18] = molecular target: T3, Endoribonuclease toxin MazF; assay: substrate-only fluorescence increase artefacts – biochemical, single-stranded RNase substrate, counter-screen for MazEF activator project, dose response (AID 588502); assay type: functional
[19] = molecular target: T4, RNA-binding protein pos-1 (Caenorhabditis elegans, UniProt G5EF15); assay: disruptors of C. elegans POS-1 RNA interaction – biochemical, fluorescence polarization, dose response (AID 1964);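 note: purified POS-1 fused to maltose binding protein made in E. coli; potency of compounds blocking POS-1 binding to fluorescent RNA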
T4 sequence (G5EF15 whole entry): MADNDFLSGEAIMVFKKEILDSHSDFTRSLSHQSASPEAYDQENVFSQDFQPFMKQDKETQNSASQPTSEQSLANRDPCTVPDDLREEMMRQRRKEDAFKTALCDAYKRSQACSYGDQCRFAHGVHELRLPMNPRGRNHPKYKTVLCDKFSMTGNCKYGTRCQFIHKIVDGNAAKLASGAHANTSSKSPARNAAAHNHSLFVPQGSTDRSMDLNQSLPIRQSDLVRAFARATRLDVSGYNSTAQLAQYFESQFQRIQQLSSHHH

[20] = molecular target: T5, Zinc finger protein mex-5 (Caenorhabditis elegans, UniProt Q9XUB2); assay: potency of MEX-5 RNA-binding blockers – biochemical, C. elegans, fluorescence polarization, dose response (AID 1960)
T5 sequence (Q9XUB2 whole entry): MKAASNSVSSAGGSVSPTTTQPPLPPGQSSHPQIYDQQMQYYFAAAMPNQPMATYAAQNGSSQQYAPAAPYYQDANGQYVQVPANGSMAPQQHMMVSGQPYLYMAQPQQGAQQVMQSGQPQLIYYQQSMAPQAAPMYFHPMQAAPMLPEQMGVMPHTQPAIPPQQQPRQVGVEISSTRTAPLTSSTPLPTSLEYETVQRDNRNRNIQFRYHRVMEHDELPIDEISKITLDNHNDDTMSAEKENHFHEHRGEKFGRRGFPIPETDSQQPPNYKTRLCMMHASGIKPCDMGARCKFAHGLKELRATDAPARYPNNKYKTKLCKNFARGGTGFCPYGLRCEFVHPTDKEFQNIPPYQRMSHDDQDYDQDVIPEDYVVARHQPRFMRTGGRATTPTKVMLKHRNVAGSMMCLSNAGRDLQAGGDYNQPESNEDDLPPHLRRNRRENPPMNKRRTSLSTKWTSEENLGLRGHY

Chain of ATP-dependent molecular chaperone HSP82 (C4YTQ8 whole entry): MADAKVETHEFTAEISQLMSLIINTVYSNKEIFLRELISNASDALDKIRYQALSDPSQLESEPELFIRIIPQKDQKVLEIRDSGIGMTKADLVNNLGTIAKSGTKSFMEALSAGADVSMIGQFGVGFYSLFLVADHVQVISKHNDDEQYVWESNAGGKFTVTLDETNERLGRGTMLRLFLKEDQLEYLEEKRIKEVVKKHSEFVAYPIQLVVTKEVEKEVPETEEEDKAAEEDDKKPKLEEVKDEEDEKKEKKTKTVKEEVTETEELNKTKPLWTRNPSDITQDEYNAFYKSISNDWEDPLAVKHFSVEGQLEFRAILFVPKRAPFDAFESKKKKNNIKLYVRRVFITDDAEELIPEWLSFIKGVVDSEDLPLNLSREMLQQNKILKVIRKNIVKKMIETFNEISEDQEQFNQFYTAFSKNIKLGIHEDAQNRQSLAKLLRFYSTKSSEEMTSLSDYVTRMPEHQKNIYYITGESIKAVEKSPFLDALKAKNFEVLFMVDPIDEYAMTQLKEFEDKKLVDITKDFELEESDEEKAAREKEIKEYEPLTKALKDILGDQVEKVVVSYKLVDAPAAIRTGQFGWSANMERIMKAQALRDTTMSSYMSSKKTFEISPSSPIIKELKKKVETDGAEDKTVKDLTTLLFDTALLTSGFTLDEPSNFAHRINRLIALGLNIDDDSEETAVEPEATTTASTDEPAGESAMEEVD

Structure (SMILES) | EC50 [1] | EC50 [2] | EC50 [3] | EC50 [5] | EC50 [17] | EC50 [18] | other results
O=C1/C(=C/c2cccnc2)CCc2c1[nH]c1ccccc21 | > 160 µM (inactive) | 1.95 µM (active) | > 180 µM (inactive) | > 150 µM (inactive) |  |  | AC50 [4]: 18.7 µM (active)
O=C(NCc1ccccc1)c1c(Cl)nc(Cl)c(Cl)c1Cl |  |  |  |  |  |  | EC50 [6]: 10.3 µM (active); EC50 [7]: 6.46 µM (active); EC50 [8]: > 120 µM (not active); EC50 [9]: > 120 µM (not active); EC50 [10]: 77.2 µM (inconclusive); EC50 [11]: 7.26 µM (inconclusive); EC50 [12]: 9.83 µM (active); EC50 [13]: 57.8 µM (active); EC50 [14]: 3.69 µM (active)
CCCC(=O)NC(c1ccco1)c1cc([N+](=O)[O-])c2cccnc2c1O (configuration not stated) | 20.3 µM (active) | 0.826 µM (active) | > 180 µM (inactive) | > 150 µM (inactive) |  |  | AC50 [15]: 2.02 µM (active)
CC(C)(C)c1ccc(OCCCC(=O)NNC(=O)c2ccccc2O)cc1 | 51 µM (inconclusive) | > 38 µM (not active) | > 180 µM (inactive) | > 160 µM (inactive) |  |  | IC50 [16]: > 79 µM (inactive)
COc1ccc2nc(SCC(C)=O)c(C#N)cc2c1 |  |  |  |  | > 99 µM (inactive) | 16.5 µM (active) | 
CCCCOC(=O)Cn1c2ccc(OC)cc2c2nc3ccccc3nc21 |  |  |  |  | > 99 µM (inactive) | 24.7 µM (inactive) | EC50 [19]: > 300 µM (not active); EC50 [20]: > 300 µM (not active)
CC1=NN(c2ccccc2)C(=O)/C1=C/c1cc(C)n(C2CC2)c1C |  |  |  |  | > 99 µM (inactive) | > 99 µM (inactive) | 
